Tests used:
Assay type in all cases: in vivo, Swiss-Webster mice
neutrophils [1] = experiment: Neutrophils by complete blood count on day 8, dosing day 1, 3, 5; conditions: Mus musculus, Neutrophil, 192 h, mice, oral gavage, measured on day 8, read-out: Neutrophils % Increase Over Control; for change in vivo at 200 mg/kg: 200 mg/kg on day 1, day 3 and day 5
Description: To examine the effect of compounds and methods of the present invention on increasing white blood cells, the following studies were performed. In one series of experiments, male Swiss-Webster mice were administered various compounds of the present invention via oral gavage using a ball-tipped gavage needle. […] Animals were dosed once daily for 3 or 4 days. Six hours after the final dosing, 200 μl blood samples were collected and total white blood cell, neutrophil, and lymphocyte levels were measured by complete blood count (CBC) using a CellDyn cell analyzer (Abbott Laboratories).
In another series of experiments, male Swiss-Webster mice were administered various compounds (see Table 7 and Table 8) of the present invention via oral gavage using a ball-tipped gavage needle. […] Total WBC, neutrophil, lymphocyte, and monocyte levels were measured in mice as described above on day 8 following administration of compound on day 1, day 3, and day 5.

neutrophils [2] = experiment: as above; conditions: mice, oral gavage, measured on day 8
monocytes = experiment: Monocytes by complete blood count on day 8, dosing day 1, 3, 5; conditions: mice, oral gavage, measured on day 8
[3] = test system: total white blood cell (WBC); experiment: Total white blood cells by complete blood count on day 8, dosing day 1, 3, 5; conditions: Mus musculus, 192 h, mice, oral gavage, measured on day 8, read-out: Total WBC % Increase Over Control; for change in vivo at 200 mg/kg: 200 mg/kg on day 1, day 3 and day 5
Summary of the method: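 Male Swiss-Webster mice received test compound by oral gavage with a ball-tipped gavage needle on day 1, day 3 and day 5. On day 8, 200 μl of blood was collected and total white blood cell levels were determined by complete blood count on a CellDyn cell analyzer (Abbott Laboratories), expressed as percent change relative to control.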

lymphocytes = experiment: Lymphocytes by complete blood count on day 8, dosing day 1, 3, 5; conditions: mice, oral gavage, measured on day 8
Summary of the method: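 Male Swiss-Webster mice received the compounds by oral gavage through a ball-tipped gavage needle on days 1, 3 and 5. On day 8, 200 μl blood samples were drawn and lymphocyte counts were obtained by complete blood count on a CellDyn cell analyzer (Abbott Laboratories). The change was expressed as percent increase relative to control animals.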

[4] = test system: total white blood cell (WBC); experiment: Total white blood cells by complete blood count on day 8, dosing day 1, 3, 5; conditions: mice, oral gavage, measured on day 8
[5] = 100 mg/kg on day 1, day 3 and day 5
[6] = 60 mg/kg on day 1, day 3 and day 5
[7] = 200 mg/kg on day 1, day 3 and day 5
[8] = Mus musculus, Monocyte, 192 h, 200 mg/kg on day 1, day 3 and day 5, read-out: Monocytes % Increase Over Control
[9] = Mus musculus, Lymphocyte, 192 h, 200 mg/kg on day 1, day 3 and day 5, read-out: Lymphocytes % Increase Over Control
[10] = 20 mg/kg on day 1, day 3 and day 5

## N#Cc1nc(C(=O)NCC(=O)O)c(O)c2cc(Oc3ccc(F)cc3)ccc12 [Compound D, {[1-Cyano-6-(4-fluoro-phenoxy)-4-hydroxy-isoquinoline-3-carbonyl]-amino}-acetic acid]
Neutrophils [1]; [5]
  change in vivo at 100 mg/kg: 242%
Neutrophils [2]; [5]
  Neutrophils: 1.3 10^3 cells/μl
monocytes; [5]
  Monocytes: 0.2 10^3 cells/μl
[3]; [5]
  change in vivo at 100 mg/kg: 152%
lymphocytes; Mus musculus, Lymphocyte, 192 h, 100 mg/kg on day 1, day 3 and day 5, read-out: Lymphocytes % Increase Over Control
  change in vivo at 100 mg/kg: 140%
lymphocytes; [5]
  Lymphocytes: 9.3 10^3 cells/μl
[4]; [5]
  Total WBC: 10.8 10^3 cells/μl

## N#Cc1nc(C(=O)NCC(=O)O)c(O)c2ccn(Cc3ccc(F)cc3)c12 [Compound O, {[7-Cyano-1-(4-fluoro-benzyl)-4-hydroxy-1H-pyrrolo[2,3-c]pyridine-5-carbonyl]-amino}-acetic acid]
Neutrophils [1]; [6]
  change in vivo at 60 mg/kg: -3%
Neutrophils [2]; [6]
  Neutrophils: 0.8 10^3 cells/μl
monocytes; Mus musculus, Monocyte, 192 h, 60 mg/kg on day 1, day 3 and day 5, read-out: Monocytes % Increase Over Control
  change in vivo at 60 mg/kg: 140%
monocytes; [6]
  Monocytes: 0.2 10^3 cells/μl
[3]; [6]
  change in vivo at 60 mg/kg: 86%
lymphocytes; Mus musculus, Lymphocyte, 192 h, 60 mg/kg on day 1, day 3 and day 5, read-out: Lymphocytes % Increase Over Control
  change in vivo at 60 mg/kg: 102%
lymphocytes; [6]
  Lymphocytes: 10.9 10^3 cells/μl
[4]; [6]
  Total WBC: 11.9 10^3 cells/μl

## N#Cc1nc(C(=O)NCC(=O)O)c(O)c2c(Oc3ccc(F)cc3)cccc12 [Compound G, {[1-Cyano-5-(4-fluoro-phenoxy)-4-hydroxy-isoquinoline-3-carbonyl]-amino}-acetic acid]
Neutrophils [1]
  change in vivo at 200 mg/kg: 48%
Neutrophils [2]; [7]
  Neutrophils: 0.8 10^3 cells/μl
monocytes; [8]
  change in vivo at 200 mg/kg: 317%
monocytes; [7]
  Monocytes: 0.2 10^3 cells/μl
[3]
  change in vivo at 200 mg/kg: 138%
lymphocytes; [9]
  change in vivo at 200 mg/kg: 148%
lymphocytes; [7]
  Lymphocytes: 13.2 10^3 cells/μl
[4]; [7]
  Total WBC: 14.3 10^3 cells/μl

## Cc1cccc(Oc2cccc3c(C#N)nc(C(=O)NCC(=O)O)c(O)c23)c1 [Compound AY, {[1-Cyano-4-hydroxy-5-m-tolyloxy-isoquinoline-3-carbonyl]-amino}-acetic acid]
Neutrophils [1]; [10]
  change in vivo at 20 mg/kg: 9%
Neutrophils [2]; [10]
  Neutrophils: 0.7 10^3 cells/μl
monocytes; Mus musculus, Monocyte, 192 h, 20 mg/kg on day 1, day 3 and day 5, read-out: Monocytes % Increase Over Control
  change in vivo at 20 mg/kg: 8%
monocytes; [10]
  Monocytes: 0.2 10^3 cells/μl
[3]; [10]
  change in vivo at 20 mg/kg: 19%
lymphocytes; Mus musculus, Lymphocyte, 192 h, 20 mg/kg on day 1, day 3 and day 5, read-out: Lymphocytes % Increase Over Control
  change in vivo at 20 mg/kg: 21%
lymphocytes; [10]
  Lymphocytes: 6.5 10^3 cells/μl
[4]; [10]
  Total WBC: 7.5 10^3 cells/μl

## Cc1cccc(C)c1Oc1ccc2c(C#N)nc(C(=O)NCC(=O)O)c(O)c2c1 [Compound E, {[1-Cyano-6-(2,6-dimethyl-phenoxy)-4-hydroxy-isoquinoline-3-carbonyl]-amino}-acetic acid]
Neutrophils [1]
  change in vivo at 200 mg/kg: 54%
Neutrophils [2]; [7]
  Neutrophils: 0.8 10^3 cells/μl
monocytes; [8]
  change in vivo at 200 mg/kg: 100%
monocytes; [7]
  Monocytes: 0.1 10^3 cells/μl
[3]
  change in vivo at 200 mg/kg: 221%
lymphocytes; [9]
  change in vivo at 200 mg/kg: 245%
lymphocytes; [7]
  Lymphocytes: 15.8 10^3 cells/μl
[4]; [7]
  Total WBC: 16.6 10^3 cells/μl
